The test system of one assay is NHEK keratinocytes. The assay is described as follows: ROS production in NHEK keratinocytes subjected to UVA (H2DCFDA probe). In kind it is cell-based, Human. The conditions noted are these: UVA 5 J/cm^2, extract at 0.29%, active at 0.3%, ascorbic acid at 300 μg/mL, 24 h pre-treatment, FIG. 2. On the procedure: The Normal Human foreskin-derived Epidermal Keratinocytes isolated from 3 Caucasian donors (NHEKs, Lonza, 00192906) were grown in Epilife medium (Fisher Scientific, M-EPI-500-A) supplemented with Human Keratinocyte Growth Supplement (HKGS, Fisher Scientific, S-001-5). The cells were maintained in a humidified incubator at 37° C. with a 5% CO2 atmosphere. The detection and quantification of the intracellular ROS amounts from 2D NHEK keratinocytes or 3D RHE were performed using the H2DCFDA (2′-7′dichlorodihydrofluorescein diacetate; Fisher Scientific; D399) probe. After its diffusion into the live cells, the probe is deacetylated by intracellular esterases to a non-fluorescent compound. This compound can be oxidized by ROS and converted into the highly fluorescent DCF (2′-7′ dichlorofluorescein). The production of ROS by cells can be therefore measured through the level of fluorescence emitted by the oxidized dye. NHEK keratinocytes in 24-well plates were pre-treated in the culture medium during 24 h by the compounds at 1 concentration or with the antioxidant reference, ascorbic acid at 300 μg/mL. […] Following the challenge, the fluorescence was measured (excitation: 475 nm; emission: 500-550 nm) with a fluorescence microplate reader (Glomax Explorer, Promega). […]

A further assay deals with pro-MMP1. Put plainly: Pro-MMP1 release from NHDFs fibroblasts (ELISA). The assay is classed as cell-based, Human. As to conditions: NHDFs treated 72 h; B 0.0079%, E 0.029%, A 0.03%; TGF-β1 20 ng/ml; TNFα 20 ng/mL + IL1β 2.5 ng/ml; vs untreated control; FIG. 3. On the procedure:
The Normal Human foreskin-derived Dermal Fibroblasts (NHDFs; ATCC, CRL-2522) cells were grown in Dulbecco's Modified Eagle Medium (DMEM, Gibco/Life Technologies, 31885) supplemented with 10% of Foetal Bovine Serum (FBS, Gibco/Life Technologies, 10270). The cells were maintained in a humidified incubator at 37° C. with a 5% CO2 atmosphere.
NHDF fibroblasts were cultivated on 24-well plates in complete culture medium (containing 10% FBS) 24 h before the treatment with the compounds. Cells were then treated for 72 h with the test compounds in culture medium, in absence of FBS. In parallel, reference treatments were applied according to the same method (TGF-β at 20 ng/ml; combination of TNFα at 20 ng/ml and IL1β at 2.5 ng/ml). All the treatments were performed in triplicate of culture (n=3).
At the end of the 72 h of treatments, all the supernatants were collected, aliquoted and stored at −20° C. until further use in specific ELISA assays. Through these assays, the quantifications of the extracellular releases of pro-MMP1 (R&D systems, DMP100) produced by NHDFs fibroblasts were assessed according to the supplier's specifications.
(In general: An ELISA detects its analyte on a solid surface through an enzyme-linked reagent.)

On to `O=C1O[C@H]([C@@H](O)CO)C(O)=C1O` [ascorbic acid], for which the ROS production entry in the assay on NHEK keratinocytes is recorded as “partially suppressed this effect”. With “TGF-β1: negative reference at 20 ng/ml in the pro-MMP1 assay”, the “pro-MMP1 release in supernatant” value in the assay with pro-MMP1 is on record as “reduced”.

For the origin of these results see US20260191764A1, “COMBINATION OF A LACTOBACILLUS STRAIN AND A GRAPE EXTRACT FOR USE AS AN ANTI-AGEING AGENT” (CEPAGES, priority 2022, published 2026).
